Test results published in publication PMC5572369 (Frontiers in Microbiology, 2017).

Assays:
[1] = biological target: T1, PrbP (Candidatus Liberibacter asiaticus, UniProt A0ABM5NE52)
T1 construct: gene WSI_01420

[2] = biological target: T1, PrbP; remark: listed apart in the source

Cc1c(Cl)cccc1Nc1ccccc1C(=O)O [tolfenamic acid]
concentration for complete disruption of PrbP/PrplK complex [1]: 350 µM | % decrease in transcription at 500 μM [2]: 79%
